The source of these data is ChEMBL document CHEMBL1153821, “Identification of novel inhibitors of HCV RNA-dependent RNA polymerase by pharmacophore-based virtual screening and in vitro evaluation” (Bioorg Med Chem, 2009).

Experiment [1] deals with Hepatitis C virus. The experiment can be described thus: Inhibition of HCV1b NS5B polymerase assessed as [alpha-32P]UTP incorporation by non-competitive double reciprocal plot. The note with it: Hepatitis C virus subtype 1b.
Experiment [2] has as its system Hepatitis C virus. In words: Inhibition of HCV1b NS5B polymerase after 2 hrs by RdRp activity assay. More on the design: species or system Hepatitis C virus subtype 1b.
Experiment [3] has as its system Hepatitis C virus. The experiment can be described thus: Inhibition of HCV1b NS5B polymerase at 100 uM after 2 hrs by RdRp activity assay. More on the design: species or system Hepatitis C virus subtype 1b.

Active and inactive are the calls of the source. No cut-off for these calls is given here.

With `O=C(Nc1cccn(Cc2ccc(Cl)c(Cl)c2)c1=O)Sc1cccc(C(F)(F)F)c1`, the outcome in the experiment with Hepatitis C virus [1] was Active. Moreover, inhibition with Hepatitis C virus [2] was half-maximal at 20 µM (IC50). Moreover, the inhibition (as a rule, how much of the control response was suppressed) at 100 µM in the experiment on Hepatitis C virus [3] is over 80%.

Take `Nc1ncnc2c1ncn2/C=C/C(=O)c1ccco1`: in the experiment on Hepatitis C virus [1], the result was Active. Also, the IC50 (commonly the concentration that gives 50% inhibition) in the experiment on Hepatitis C virus [2] turned out to be 20 µM. This molecule came in with an inhibition at 100 µM in the experiment on Hepatitis C virus [3] of over 80%.

As to `Nc1ncnc2c1ncn2/C=C/C(=O)c1ccccc1`, the result in the experiment on Hepatitis C virus [1] was Active. Also, the IC50 in the experiment on Hepatitis C virus [2] stood at 20 µM. Besides, the inhibition at 100 µM in the experiment with Hepatitis C virus [3] is over 80%.
